One test concerns Rhizoctonia solani. Description: Light microscopy of hyphae grown at sub-inhibitory concentration. As to conditions: R. solani; subinhibitory concentration 0.5 μg/mL; versus control. The test is classed as cell-based. The protocol: (§1) Microscopy. […] For each of the fungi, the hyphae or arthrospores with an observed MIC50 at 48 hours growing next to the MIC well were used for preparation of light microscopy and transmission electron microscopy (TEM) slides. For light microscopy, lactophenol cotton blue solution (Sigma) was used as a positive stain and mounting medium for the slide. For TEM, the G. candidum samples were fixed at 4° C. with 2.5% glutaraldehyde in 0.1 M phosphate buffer (pH 7.2). After being rinsed with the buffer, specimens were post-fixed with 2% osmium tetroxide in the phosphate buffer. The specimens washed with the phosphate butler were dehydrated in graded ethanol serials (50-100%), and then embedded in Spurr's resin. Thin sections generated with a Reichert-Jung Ultracut E Ultramicrotome (60-90 nm) were double stained with uranyl acetate and lead citrate as described previously. The grids were observed under a transmission electron microscope Jeol JEM-100CX11 (Joel Ltd., Tokyo, Japan). Images were taken at magnifications between 5,000 and 8,000.

Test [1] relates to Geotrichum candidum. Description: Transmission electron microscopy of arthrospores. Format: cell-based. Conditions: G. candidum; subinhibitory 4 μg/mL for 48 hours; TEM; versus untreated. Here is the method: as §1
In a further test the test system is Aspergillus niger. Description: Antifungal susceptibility testing, agar micro-dilution. Conditions: A. niger; 48 hours. The test is classed as cell-based. From the text: (§2) Microbial organisms. Fungal strains were obtained from collections at Mississippi State University's Veterinary Medical Research and Diagnostic Laboratory System and Entomology and Plant Pathology Department or were purchased from the American Type Culture Collection (Manassas, Va.). Fungal isolates used in this study were Alternaria alternata, Aspergillus fumigatus, Aspergillus niger; Fusarium oxysporum f. sp. lycopersici ATCC9848, Geotrichum candidum F-260, Macrophomina phaseolina 61, Microsporum gypseum, Penicillium sp., Rhizoctonia solani MSCOT-I, and Trichophyton mentagrophytes. In addition, two Pythium species were tested: Pythium spinosum 472-04 and Pythium ultimum 671-04.
(§3) Antifungal susceptibility testing. Minimum inhibitory concentrations were determined by agar micro-dilution testing. […] One (1) mL of Sabouraud dextrose agar Difco™ (BD Diagnostics, Franklin Lakes, N.J.) was added to each well. Once the agar solidified, the plates were stored inverted at 4° C. until used. Fungal cultures were grown on 100×15 mm Sabouraud dextrose agar plates (Thermo Fisher Scientific Remel Products, Lenexa, Kans.) at 22° C. for 7 days. A circular punch, containing a 1 cm in diameter plug of the fungi from the agar plate, was made from an area of the plate having a confluent growth of the fungi. The plug was place in 3 mL of PBS and ground with approximately 30 strokes of a Ten-brock homogenizer. Five (5) μL of the supernatant was placed in the center of each well and allowed to dry before incubating the microtiter plates at 22° C. Minimum inhibitory concentrations were measured at 48 hours for each species, except for Trichophyton mentagrophytes, which was measured at 72 hours. MICS were determined as the lowest concentration that inhibited visible fungal growth.

In test [2] the test system is Macrophomina phaseolina 61. The description is as above. Format: cell-based. As to conditions: 48 hours.
Excerpt: as §2, §3

In test [3] the test system is Fusarium oxysporum f. sp. lycopersici ATCC9848. Described as above. Conditions: 48 hours. Format: cell-based.
Excerpt: as §2, §3

The subject of test [4] is Geotrichum candidum F-260. Described as above. Conditions: G. candidum; 48 hours. The test is classed as cell-based.
Excerpt: as §2, §3

In a further test the test system is Alternaria alternata. Described as above. Format: cell-based. Conditions: 48 hours.
Excerpt: as §2, §3

Test [5] has as its system Rhizoctonia solani MSCOT-I. The description is as above. Format: cell-based. Conditions: R. solani.
Excerpt: as §2, §3

In the next test the test system is Penicillium sp. The test is described as above. The test is classed as cell-based. As to conditions: 48 hours.
Excerpt: as §2, §3

In another test the test system is Microsporum gypseum. The test is described as above. Conditions: 48 hours. Format: cell-based.
Excerpt: as §2, §3

Test [6] concerns Trichophyton mentagrophytes. The description is as above. Format: cell-based. As to conditions: 72 hours.
Excerpt: as §2, §3

The test system of another test is Pythium spinosum 472-04. The description is as above. Format: cell-based. As to conditions: P. spinosum; 48 hours.
Excerpt: as §2, §3

In a further test the test system is Pythium ultimum 671-04. The description is as above. The test is classed as cell-based. Conditions: P. ultimum; 48 hours.
Excerpt: as §2, §3

A further test deals with Aspergillus fumigatus. The description is as above. The test is classed as cell-based. Conditions: A. fumigatus; 48 hours.
Excerpt: as §2, §3

The test system of test [7] is Geotrichum candidum. Description: Light microscopy of arthrospores. Format: cell-based. As to conditions: G. candidum; 4 μg/mL for 48 hours; versus untreated. Here is the method: as §1
The next test relates to A. fumigatus. As to conditions: cited from earlier work.

The term MIC denotes the least concentration at which growth counts as inhibited.

“Also recorded” adds a separate entry of the source. Like-named read-outs stand apart in the source and are kept apart here. Numbered stars: 1 amine (or outer) side, 2 acyl side, 3 side chain; on linkers, the order of the positions; unused ones are H or OH. Bridge positions count the residues as written; N and C are the ends. Square brackets hold non-standard residues; d marks the D form. Peptide text beside a SMILES is read from it. * marks the point of attachment. hTyr(3S-OH,4S-OH,3'-OSO3H) = N[C@H](C(=O)O)[C@H](O)[C@@H](O)c1ccc(O)c(OS(=O)(=O)O)c1; Orn(4R-OH,5R-OH) = O=C([C@H](C[C@@H](O)[C@@H](O)N[*:3])N[*:1])[*:2]; Pro(3S-OH,4S-Me) = C[C@H]1CN[C@H](C(=O)O)[C@H]1O; X1 = CCCCCOc1ccc(-c2cc(-c3ccc(C(=O)*)cc3)no2)cc1; Gln(3R-OH) = NC(=O)C[C@@H](O)[C@H](N)C(=O)O; Hyp = O=C(O)[C@@H]1C[C@@H](O)CN1

For occidiofungin, in the test on Rhizoctonia solani, the hyphal morphology result is listed as “significant hyphal morphological changes”. In addition, the cell wall thickness entry in the test on Geotrichum candidum [1] is reported as “drastically reduced; also recorded: dramatic decrease in cell wall thickness”. In addition, the MIC is 4 µg/mL in the test on Aspergillus niger; 2 µg/mL in [2]; greater than 32 µg/mL in [3]; 8 µg/mL in test [4]; 8 µg/mL against Alternaria alternata; 32 µg/mL in the test with Penicillium sp.. The minimal inhibitory concentration (MIC) with Microsporum gypseum worked out at 4 µg/mL; in test [6], 4 µg/mL; against Pythium spinosum 472-04, 1 µg/mL; in the test with Pythium ultimum 671-04, 2 µg/mL; in the test with Aspergillus fumigatus, 8 µg/mL. Besides, the “concentration with significant growth inhibition” value in [3] worked out at 16 µg/mL. The “concentration with remarkable growth inhibition (MIC50)” value in [4] worked out at 4 µg/mL. In addition, in test [5] (0.5 μg/mL occidiofungin), the reduction in growth is listed as greater than 50%. Further, the “concentration with significant growth inhibition (MIC50, >50% growth inhibition)” value in [5] (48 hours) amounted to 0.5 µg/mL. In addition, in the test on Geotrichum candidum [7], the arthrospore/cell morphology entry is on record as “significant swelling of the cells; also recorded: amorphous shapes due to cellular swelling”.
As to `CCCCCOc1ccc(-c2cc(-c3ccc(C(=O)N[C@H]4C[C@@H](O)[C@@H](O)NC(=O)[C@@H]5[C@@H](O)[C@@H](C)CN5C(=O)[C@H]([C@H](O)CC(N)=O)NC(=O)[C@H]([C@H](O)[C@@H](O)c5ccc(O)c(OS(=O)(=O)O)c5)NC(=O)[C@@H]5C[C@@H](O)CN5C(=O)[C@H]([C@@H](C)O)NC4=O)cc3)no2)cc1` [micafungin] (X1-[Orn(4R-OH,5R-OH)]T[Hyp][hTyr(3S-OH,4S-OH,3'-OSO3H)][Gln(3R-OH)][Pro(3S-OH,4S-Me)]; lactam 1-C), the hyphal morphology entry was “hyphal burst” in the test on A. fumigatus (inhibitory concentrations); “undulated membranes and deformed hyphae tips” in the test on A. fumigatus (sub-inhibitory concentrations).

Source of the values: patent publication US10092622B2 (M[…] University Research and Technology Corporation, priority 2009, dated 2018).
